Measurements published in paper PMC11435058, “Synthesis of New Thiazole-Privileged Chalcones as Tubulin Polymerization Inhibitors with Potential Anticancer Activities” (Pharmaceuticals, 2024).

Experiments:
tubulin = test: In vitro tubulin polymerization inhibition assay; format: biochemical; settings: 4 mg/mL tubulin, 37°C, absorbance at 340 nm
Method: 4.2.2. In Vitro Tubulin Polymerization Inhibition Assay.
2p, and the reference drug CD -4) with the microtubule system. Specifically, the in vitro inhibition of tubulin polymerization was evaluated for these compounds. The standard tubulin polymerization reaction was carried out, containing 100 μL of 4 mg/mL tubulin in a buffer solution of 80 mM PIPES (pH 6.9), 0.5 mM EGTA, 2 mM MgCl2, and 1 mM GTP. Polymerization was initiated by incubating the reaction […]
Under these conditions, polymerization typically reaches a maximum absorbance of […]
growth, and steady state. In this experimental set up, an absorbance of 0.1 at 340 nm corresponds to approximately 1 mg/mL of polymerized tubulin, meaning that around […]
40% of the tubulin is polymerized, allowing for the detection of both enhancers and inhibitors of polymerization. The inhibitory effect of each compound on tubulin polymerization was quantified by determining the IC50 values, which were reported as the mean ± standard deviation from three independent experiments. […]

SNB-19 = test: cells; settings: Homo sapiens; for GI50 / IC50: SNB-19; for activity at 10 µM: SNB-19, 48 h, read-out: Growth Percentage; for CC50: SNB-19, read-out: LC50; for IC (TGI): SNB-19, read-out: TGI
HL-60(TB) = test: NCI-60 anticancer screen (SRB; single dose and five doses); settings: Homo sapiens; for GI50 / IC50: HL-60; for activity at 10 µM: HL-60, 48 h, read-out: Growth Percentage; for CC50: HL-60, read-out: LC50; for IC (TGI): HL-60, read-out: TGI
NCI-H460 = test: as above; settings: Homo sapiens; for GI50 / IC50: NCI-H460; for activity at 10 µM: NCI-H460, 48 h, read-out: Growth Percentage; for CC50: NCI-H460, read-out: LC50; for IC (TGI): NCI-H460, read-out: TGI
HCT-116 = test: as above; settings: Homo sapiens; for GI50 / IC50: HCT-116; for activity at 10 µM: HCT-116, 48 h, read-out: Growth Percentage; for CC50: HCT-116, read-out: LC50; for IC (TGI): HCT-116, read-out: TGI
SF-268 = test: as above; settings: Homo sapiens; for GI50 / IC50: SF-268; for activity at 10 µM: SF-268, 48 h, read-out: Growth Percentage; for CC50: SF-268, read-out: LC50; for IC (TGI): SF-268, read-out: TGI
SK-MEL-5 = test: as above; settings: Homo sapiens; for GI50 / IC50: SK-MEL-5; for activity at 10 µM: SK-MEL-5, 48 h, read-out: Growth Percentage; for CC50: SK-MEL-5, read-out: LC50; for IC (TGI): SK-MEL-5, read-out: TGI
UO-31 = test: as above; settings: Homo sapiens; for GI50 / IC50: UO-31; for IC (TGI): UO-31, read-out: TGI; for activity at 10 µM: UO-31, 48 h, read-out: Growth Percentage

Compound | IC50 (tubulin) [µM] | IC50 (SNB-19) [µM] | CC50 (SNB-19) [µM] | IC (TGI) (SNB-19) [µM] | GI50 (HL-60(TB)) [µM] | IC50 (HL-60(TB)) [µM] | activity at 10 µM (HL-60(TB)) [%] | CC50 (HL-60(TB)) [µM] | IC (TGI) (HL-60(TB)) [µM] | GI50 (NCI-H460) [µM] | IC50 (NCI-H460) [µM] | activity at 10 µM (NCI-H460) [%] | CC50 (NCI-H460) [µM] | IC (TGI) (NCI-H460) [µM] | GI50 (HCT-116) [µM] | IC50 (HCT-116) [µM] | activity at 10 µM (HCT-116) [%] | CC50 (HCT-116) [µM] | IC (TGI) (HCT-116) [µM] | GI50 (SF-268) [µM] | other results
COc1cc(/C=C/C(=O)c2sc(=S)[nH]c2C)cc(OC)c1OC [2p, (E)-1-(4-Methyl-2-Thioxo-2,3-Dihydrothiazol-5-yl)-3-(3,4,5-Trimethoxyphenyl)Prop-2-En-1-One] | 25.1 | 13.2 | 43.6 | 17.8 | 2.57 | 3.89 | 3.95 | > 100 | 11.2 | 2.14 | 3.31 | -1.34 | 44.7 | 5.62 | 3.16 | 3.63 | 6.81 | 69.2 | 14.4 | 2.63 | GI50 (SNB-19): 5.01 µM; activity at 10 µM (SNB-19): 19.6%; IC50 (SF-268): 6.46 µM; activity at 10 µM (SF-268): 18.5%; CC50 (SF-268): 55 µM; IC (TGI) (SF-268): 11.2 µM; GI50 (SK-MEL-5): 1.58 µM; IC50 (SK-MEL-5): 3.31 µM; activity at 10 µM (SK-MEL-5): -64.6%; CC50 (SK-MEL-5): 10 µM; IC (TGI) (SK-MEL-5): 3.98 µM; GI50 (UO-31): 3.02 µM; IC50 (UO-31): 7.76 µM; IC (TGI) (UO-31): 15.5 µM
Cc1[nH]c(=S)sc1C(=O)/C=C/c1cccc(Cl)c1 [2e, (E)-3-(3-Chlorophenyl)-1-(4-Methyl-2-Thioxo-2,3-Dihydrothiazol-5-yl)Prop-2-En-1-One] | 4.93 | 17 | 49 | 21.4 | 2.24 | 4.27 | 25.3 | > 100 | 7.08 | 2.75 | 3.55 | 12.1 | 45.7 | 7.59 | 1.82 | 2.95 | 3.28 | 7.41 | 3.63 | 3.72 | IC50 (SF-268): 7.59 µM; activity at 10 µM (SF-268): 51.8%; CC50 (SF-268): 97.7 µM; IC (TGI) (SF-268): 17 µM; GI50 (SK-MEL-5): 4.79 µM; IC50 (SK-MEL-5): 9.12 µM; activity at 10 µM (SK-MEL-5): 16.1%; CC50 (SK-MEL-5): 41.7 µM; IC (TGI) (SK-MEL-5): 17 µM; GI50 (UO-31): 1.55 µM; IC50 (UO-31): 2.88 µM; activity at 10 µM (UO-31): 34.3%; IC (TGI) (UO-31): 3.09 µM
Cc1[nH]c(=S)sc1C(=O)/C=C/c1cccc([N+](=O)[O-])c1 [2h, (E)-1-(4-Methyl-2-Thioxo-2,3-Dihydrothiazol-5-yl)-3-(3-Nitrophenyl)Prop-2-En-1-One] | 12.5 | 11.8 | 41.7 | 17 | 1.95 | 3.31 | 5.25 | > 100 | 5.75 | 3.63 | 4.27 | -30.7 | 55 | 13.8 | 2.88 | 3.31 | -6.25 | > 100 | > 100 | 10.5 | GI50 (SNB-19): 4.9 µM; activity at 10 µM (SNB-19): 10.4%; IC50 (SF-268): 19.1 µM; activity at 10 µM (SF-268): 27.5%; CC50 (SF-268): 57.5 µM; IC (TGI) (SF-268): 24.6 µM; GI50 (SK-MEL-5): 13.2 µM; IC50 (SK-MEL-5): 22.9 µM; activity at 10 µM (SK-MEL-5): -68.8%; CC50 (SK-MEL-5): 51.3 µM; IC (TGI) (SK-MEL-5): 26.3 µM; GI50 (UO-31): 3.89 µM; IC50 (UO-31): 10.7 µM; activity at 10 µM (UO-31): -89.6%; CC50 (UO-31; UO-31, read-out: LC50): 43.6 µM; IC (TGI) (UO-31): 17 µM
